Data: patent US9359311B2, “Substituted aromatic oligomers” (NEUROSCIOS GMBH, priority 2011, dated 2016)
“Also recorded” adds a separate entry of the source.

Legend:
biotinylated Aβ1-42 = target: T1, biotinylated Aβ1-42 (Homo sapiens, UniProt P05067); experiment: Inhibition of Abeta oligomerisation (biotinylated Aβ1-42, neutravidin plate, streptavidin-HRP); format: biochemical; conditions: inhibition of Aβ1-42 aggregation, approximately 12 nM Aβ1-42, PBS pH 7.4, 2% DMSO, 30 min RT
T1 construct: To assure monomerisation of biotinylated Aβ1-42 (Anaspec #23523-0.5) the peptide was thoroughly monomerised; purchased Anaspec 23523-0.5

prion = conditions: Ref: JBC doi: 10.1074/jbc.M112.355958; cited from earlier work
primary chicken neurons = experiment: Inhibition of Abeta 1-42 toxicity on primary chicken neurons (MTT); format: cell-based; design: key: No: no effect; +: minor positive effect on cell viability in the presence of aggregated Aβ 1-42; ++: medium positive effect on cell viability in the presence of aggregated Aβ 1-42; +++: strong positive effect on cell viability in the presence of aggregated Aβ 1-42; conditions: 10 μM Aβ1-42 aggregated together with compound for 48 h
Description: One-day-old fertilized eggs are stored under appropriate conditions until start of breeding. On embryonic day 0 eggs are transferred to the breeding incubator and under turning, kept at 37.8° C. and 55% humidity until embryonic day eight. Neurons are prepared as follows: In short, embryos are transferred to a plastic dish, and decapitated. Both brain hemispheres are removed, collected and any loose tissue removed. Hemispheres are mechanically dissociated and 4.8×10^4 cells per well (96-well plates) are seeded in a volume of 160 μl.
Aβ1-42 (MW 4514.1) was obtained from American Peptide Company as a lyophilized powder. A stock solution of 340 μM Aβ1-42 was prepared in 50 mM Tris-Buffer, 150 mM NaCl, pH7.6 according to the manufacturer's instructions. After sonication, the stock solution is diluted 1:1 with the test compounds to obtain a concentration of 170, 17 and 1.7 μM. After aggregation at 4° C. for 48 h, the solutions are sonicated again prior to application to the cells. The final concentration of Aβ1-42 applied to the primary chicken neurons is 10 μM.
Aβ1-42 aggregated together with compound for 48 hrs was applied to chicken neurons at DIV4 (days in vitro) and analyzed at DIV10 (144 hrs) and all others were applied to chicken neurons at DIV6 and analysed at DIV10 (96 hrs).
Viability of cultures is determined by the MTT assay. The MTT assay allows for the measurement of the mitochondrial dehydrogenase activity which reduces yellow MTT to dark blue formazan crystals. Since this reaction is catalyzed in living cells only this assay is used for the determination of cell viability. MTT solution is added to each well in a final concentration of 0.5 mg/ml. After 2 hours the MTT containing medium is aspired. Cells are lysed in 3% SDS and the formazan crystals are dissolved in isopropanol/HCl. Optical density is measured with a plate-reader at wavelength 570 nm. Cell survival rate is expressed as a percentage of optical density (OD) relative to control cells not treated with Aβ or compound.

[1] = tested on: PHF-tau doubly-phosphorylated at Thr231 and Ser235; experiment: Phosphorylation of Tau in neurites crossing amyloid plaques, AT180 IHC, hAPPSL Tg mice; format: in vivo, mouse
Description: (§1) Vehicle: Phosphate Buffered Saline (PBS; 6.7 mM PO4, 155 mM NaCl, pH=7.3-7.5) (BioWhittaker PBS from Lonza).
Test Item (T.I.): p-FTAA and P9707_003, diluted in vehicle from stock solution in deionized water (10 mg/ml).
(§2) Tg hAPPSL: Transgenic hAPPSL mice over-expressing hAPP(751) under the control of the murine Thy-1 promoter with a C57BL/6xDBA background.
(§3) 48 hAPP Tg mice plus 4 reserves allocated to 4 different treatment groups were treated with either vehicle only (control), p-FTAA or P9707_003. As an additional control, 12 nTg littermates of the hAPPSL mice (plus 1 reserve) were treated with vehicle only. Starting at 6.5 months of age, female hAPPSL mice were treated with vehicle only, p-FTAA (dosage: 1 or 10 mg/kg/day) or P9707_003 (dosage: 10 mg/kg/day) for 90 days. The Test Items (T.I.s) were administered in Vehicle. Compound and vehicle were administered twice daily i.p. for 90 days. Tg hAPPSL mice with a C57BL/6xDBA background and corresponding nTg littermates at an age of 6.5 months (+2 weeks) were randomly assigned to the treatment groups.
Histological evaluations were performed with six randomly chosen cryo-frozen brain hemispheres of treatment groups PBS Control, p-FTAA 1 mg/kg/day, p-FTAA 10 mg/kg/day, and P9707_003 10 mg/kg/day.
15 cryo-sections per level (altogether 5 levels), each 10 μm thick (Leica CM 3050S) were sagittally cut. Brain levels were chosen according to the morphology atlas “The Mouse Brain” from Paxinos and Franklin (2nd edition). The cutting of the five levels started with a random slice, then sampling was continued uniformly and systematically, always retaining 15 slices per level in series and discarding 100 μm in between the levels.
TAU phosphorylation was visualized immunohistochemically using the AT180 antibody. Clone AT180 recognizes PHF-tau doubly-phosphorylated at Thr231 and Ser235.
For determination of amyloid depositions 5 slices (1 from each level) per brain were stained and screened. From each slice five images were captured from 5 defined areas in the brain. The order of these positions reflect the time course of plaque deposition in the APPsl model, which starts in the frontal cortex (P11) at the age of 3 months and then spreads to the medial (P12) and dorsal cortex over age. At six months of age, plaques can be found in the medial cortex (P13), from then plaque load spreads into the hippocampal formation with hot spots in the subiculum (P14) and the dentate gyrus (P15) at the age of nine months.
Mosaic images for plaque load quantification including the whole cortex and hippocampus were recorded on a Zeiss AxioImager.Z1 microscope using high aperture lenses and an AxioVision 4.8 software driven AxioCam MRm (10× lens, 1× optocoupler). Plaques for AT180 quantifcation were imaged with a 20× lens. Detail images for qualitative figures are 40× image stacks collapsed to 2D by the extended depth of field function of AxioVision software.
Descriptive statistical analysis was performed on all evaluated parameters, Kolmogorov Smirnov test were performed to test normal distribution of data. Data in graphs are represented as mean±SEM.

[2] = target: T2, Human Aβ38, Aβ40 and Aβ42 (Homo sapiens, UniProt P05067); experiment: Human Aβ38, Aβ40 and Aβ42 in CSF of hAPPSL Tg mice after 90 days treatment (immunosorbent assay); format: in vivo, mouse; conditions: twice daily i.p., hAPPSL Tg mice, p-FTAA 1 or 10 mg/kg/day, P9707_003 10 mg/kg/day
T2 construct: from tissue; host or cells: CSF and left brain hemisphere (SDS fraction) of transgenic hAPPSL mice
Description: as §1
(§4) Test item (T.I.): p-FTAA and P9707_003 diluted in vehicle from stock solution in deionized water (10 mg/ml).
as §2
(§5) Human Aβ38, Aβ40 and Aβ42 were determined in homogenates of the left brain hemispheres and in CSF samples of all Tg animals by an immunosorbent assay from Mesoscale Discovery
as §3, with “(±2” for “(+2”
(§6) In the brain homogenate SDS fraction and in CSF of each Tg mouse, human Aβ38, Aβ40 and Aβ42 levels were measured with a Aβ-kit from Mesoscale Discovery. Aβ levels were evaluated in comparison to a peptide standard as pg/mg brain (wet weight) or pg/ml CSF.
Descriptive statistical analysis was performed on all evaluated parameters. All data were represented as mean±standard error of mean (SEM). Grubb's test was used to detect outliers. Normality distribution of the values was tested with Kolmogorov Smirnov normality distribution test. Group differences between all Tg groups were calculated by a parametric ANOVA followed by a Bonferroni post test.

[3] = target: T2, Human Aβ38, Aβ40 and Aβ42; experiment: Human Aβ38, Aβ40 and Aβ42 in SDS brain homogenate fraction of hAPPSL Tg mice after 90 days treatment; format: in vivo, mouse; conditions: twice daily i.p., p-FTAA 1 or 10 mg/kg/day, P9707_003 10 mg/kg/day
Description: as §1, §4, §2, §5
48 hAPP Tg mice plus 4 reserves allocated to 4 different treatment groups were treated with either vehicle only (control), p-FTAA or P9707_003. As an additional control, 12 nTg littermates of the hAPPSL mice (plus 1 reserve) were treated with vehicle only. Starting at 6.5 months of age, female hAPPSL mice were treated with vehicle only, p-FTAA (dosage: 1 or 10 mg/kg/day) or P9707_003 (dosage: 10 mg/kg/day) for 90 days. […]
as §6
Descriptive statistical analysis was performed on all evaluated parameters. […] Group differences between all Tg groups were calculated by a parametric ANOVA followed by a Bonferroni post test.

T2 sequence (P05067 672-713 limits assumed): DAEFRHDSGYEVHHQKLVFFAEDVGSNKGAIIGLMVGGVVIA
T1 sequence (P05067 672-713 limits assumed): as above

O=C(O)Cc1cc(-c2cccs2)sc1-c1ccc(-c2sc(-c3cccs3)cc2CC(=O)O)s1 [p-HTAA, reference compound]
pIC50 (biotinylated Aβ1-42): 5.7 | anti-prion potential (prion): pronounced anti-prion potential

CS(=O)(=O)c1ccc(-c2ccc(-c3sc(-c4cc(CC(=O)O)c(-c5ccc(-c6ccc(S(C)(=O)=O)cc6)s5)s4)cc3CC(=O)O)s2)cc1 [Example 50, 2-{5-[4-(Carboxymethyl)-5-[5-(4-methanesulfonylphenyl)thiophen-2-yl]thiophen-2-yl]-2-[5-(4-methanesulfonylphenyl)thiophen-2-yl]thiophen-3-yl}acetic acid]
IC50 (biotinylated Aβ1-42): 2.51 µM | Rescue of Abeta toxicity (MTT) (primary chicken neurons; Conc. 0.1 μM): no | Rescue of Abeta toxicity (MTT) (primary chicken neurons; Conc. 1 μM): +++ | Rescue of Abeta toxicity (MTT) (primary chicken neurons; Conc. 10 μM): +++

O=C(O)Cc1cc(-c2ccc(C(=O)O)s2)sc1-c1ccc(-c2sc(-c3ccc(C(=O)O)s3)cc2CC(=O)O)s1 [p-FTAA, reference compound]
IC50 (biotinylated Aβ1-42): 5.01 µM | anti-prion potential (prion): pronounced anti-prion potential | AT180 load ([1]; 1 mg p-FTAA treatment, position 4): significantly reduced | AT180 load ([1]; 10 mg p-FTAA treatment, positions 4 and 5): highly significant reduction | AT180 IR in plaques of younger history of origin (hippocampal formation, subiculum, dentate gyrus) ([1]; 90 days i.p., hAPPSL Tg mice): drastically reduced | CSF Aβ levels [2]: reduced | aggregated Aβ38, Aβ40 and Aβ42 in SDS fraction of brain homogenate [3]: significant SDS soluble Aβ lowering effect; also recorded: reduced
